Experimental data reported in US20200078468A1, “NEUROTENSIN RECEPTOR BINDING CONJUGATES AND FORMULATIONS THEREOF” (priority 2016, published 2020).
Read-outs that look alike come from different tables or passages of the source. Numbered stars: 1 amine (or outer) side, 2 acyl side, 3 side chain; on linkers, the order of the positions; unused ones are H or OH. Bridge positions count the residues as written; N and C are the ends. Square brackets hold non-standard residues; d marks the D form. Peptide text beside a SMILES is read from it. I, II: the chains in the order shown. * marks the point of attachment. Propanoyl(3-SS-DM1) = COc1cc2cc(c1Cl)N(C)C(=O)C[C@H](OC(=O)[C@H](C)N(C)C(=O)CCSSCCC(=O)*)[C@]1(C)O[C@H]1[C@H](C)[C@@H]1C[C@@](O)(NC(=O)O1)[C@H](OC)/C=C/C=C(\C)C2; X3 = COc1cccc2c1C(=O)c1c(O)c3c(c(O)c1C2=O)C[C@@](O)(C(=O)CO)C[C@@H]3O[C@H]1C[C@H](NC(=O)OCCS*)[C@H](O)[C@H](C)O1; X4 = CCc1c2c(nc3ccc(O)cc13)-c1cc3c(c(=O)n1C2)COC(=O)[C@@]3(CC)OC(=O)OCCS*; Hexanoyl(6-succinimido-3yl) = O=C1CC([*:1])C(=O)N1CCCCCC(=O)[*:2]; Dolaproine = CO[C@@H]([C@@H]1CCCN1)[C@@H](C)C(=O)O; Dil = CC[C@H](C)[C@H](NC)[C@@H](CC(=O)O)OC; PABC = O=C(OCc1ccc(N[*:1])cc1)[*:2]; NMeR = CN[C@@H](CCCNC(=N)N)C(=O)O; X1 = C[C@@H](N*)[C@@H](O)c1ccccc1; Cit = NC(=O)NCCC[C@H](N)C(=O)O; Pen = CC(C)(S)[C@H](N)C(=O)O; Tle = CC(C)(C)[C@H](N)C(=O)O; NMeV = CN[C@H](C(=O)O)C(C)C

How the values were obtained:
[1] = test system: HT-29 cells (human colon cancer cells); assay: inhibition of HT29 cell proliferation (Cell Titer Glo 2.0); type: cell-based; settings: 72 h
Procedure: Conjugates were assessed in an in vitro assay evaluating inhibition of cell proliferation. HT-29 cells (human colon cancer cells) were seeded in white walled 96-well plates at 10,000 cells per well in 100 μl McCoy's 5a (Invitrogen) media supplemented with 10% Fetal Bovine Serum (Invitrogen). After allowing cells to settle overnight, 5 μl of 20× test article was added to each well in replicate and incubated for 72 h. 72 hours after addition of compound, plates were removed from incubator and allowed to cool to room temperature. 50 μl of Cell Titer Glo 2.0 (Promega) was added to each well, incubated for 15 minutes, and plates were read on Glomax luminometer (Promega) using the Cell Titer Glo protocol. Raw luminometer readings for each plate were transformed by dividing the experimental well into the mean of untreated control wells. This is reported as ratio of untreated, and is plotted with Prism 6 software (Graph Pad) and fitted with a 4-parameter, variable slope curve.
Conjugates are assessed for receptor-dependent cytotoxicity by the difference between an NTSR1-targeting conjugate, and the corresponding conjugate with the same linker moiety and active agent where the NTSR1-targeting domain has been scrambled.

[2] = test system: SW48 (human colon cancer cells); assay: inhibition of SW48 cell proliferation (CellTiter Glo); type: cell-based; settings: 72 hrs, read-out: SW-48 proliferation IC50
In short: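 Cells plated at 5,000/well and grown 24 hrs were exposed to conjugates for 72 hrs at 37° C, 5% CO2, in a ten-point three-fold series starting at 10 μM; vehicle was 0.01% DMSO. Proliferation was read by CellTiter Glo. % inhibition was taken relative to vehicle, with IC50 from four-parameter nonlinear regression.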

human NTSR1 = biological target: T1, human NTSR1 (Homo sapiens, UniProt P30989); assay: radioligand-receptor binding assay, [125I] labeled neurotensin (Eurofins Panlabs)
T1 construct: host or cells: HEK-293 cells (membrane preparations)
T1 sequence (P30989 whole entry): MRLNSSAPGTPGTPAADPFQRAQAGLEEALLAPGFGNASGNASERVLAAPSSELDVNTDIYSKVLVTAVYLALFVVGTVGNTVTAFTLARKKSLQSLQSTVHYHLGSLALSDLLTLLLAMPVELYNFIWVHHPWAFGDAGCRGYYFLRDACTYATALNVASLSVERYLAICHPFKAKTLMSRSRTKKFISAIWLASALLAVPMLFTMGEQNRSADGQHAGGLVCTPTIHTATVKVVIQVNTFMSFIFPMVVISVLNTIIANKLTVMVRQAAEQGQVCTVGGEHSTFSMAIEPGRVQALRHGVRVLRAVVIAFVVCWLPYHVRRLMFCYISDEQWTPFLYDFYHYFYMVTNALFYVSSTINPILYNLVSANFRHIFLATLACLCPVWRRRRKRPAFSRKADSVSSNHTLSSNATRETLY
In short: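 Membranes from HEK-293 cells expressing human NTSR1 incubated 45 min with 0.02 nM [125I]neurotensin and conjugate in 6-point 3-fold dilutions from 100 or 10 nM; bound radioactivity counted after filtration. IC50 by nonlinear regression, converted to Ki via Cheng–Prusoff using historical ligand Kd.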

[3] = [125I] neurotensin 0.02 nM, membranes from NTSR1 expressing HEK-293 cells, 45 minute incubation, Cheng and Prusoff, read-out: NTSR1 binding Ki

Compound	IC50 ([1]; NTSR1 targeted compound) [nM]	IC50 ([2]; NTSR1 targeted compound) [nM]	Ki (human NTSR1; [3]) [nM]	IC50 ([2]; NTSR1 scrambled compound) [nM]	IC50 ([1]; NTSR1 scrambled compound) [nM]	Ki (human NTSR1) [nM]
COc1cc2cc(c1Cl)N(C)C(=O)C[C@H](OC(=O)[C@H](C)N(C)C(=O)CCSSCCC(=O)NCCCC[C@H](NC(C)=O)C(=O)N1CCC[C@H]1C(=O)N(C)[C@@H](CCCNC(=N)N)C(=O)N[C@@H](CCCNC(=N)N)C(=O)N1CCC[C@H]1C(=O)N[C@@H](Cc1ccc(O)cc1)C(=O)N[C@H](C(=O)N[C@@H](CC(C)C)C(=O)O)C(C)(C)C)[C@]1(C)O[C@H]1[C@H](C)[C@@H]1C[C@@](O)(NC(=O)O1)[C@H](OC)/C=C/C=C(\C)C2 [Compound 13] (Ac-K(Propanoyl(3-SS-DM1))P[NMeR]RPY[Tle]L-OH)	4.9	1.6	0.48			
COc1cc2cc(c1Cl)N(C)C(=O)C[C@H](OC(=O)[C@H](C)N(C)C(=O)CCSC1CC(=O)N(CCCNC(=O)CNC(=O)[C@H](CC(C)C)NC(=O)[C@H](Cc3ccccc3)NC(=O)CNC(=O)CCC(=O)NCCCC[C@H](NC(C)=O)C(=O)N3CCC[C@H]3C(=O)N(C)[C@@H](CCCNC(=N)N)C(=O)N[C@@H](CCCNC(=N)N)C(=O)N3CCC[C@H]3C(=O)N[C@@H](Cc3ccc(O)cc3)C(=O)N[C@H](C(=O)N[C@@H](CC(C)C)C(=O)O)C(C)(C)C)C1=O)[C@]1(C)O[C@H]1[C@H](C)[C@@H]1C[C@@](O)(NC(=O)O1)[C@H](OC)/C=C/C=C(\C)C2 (some centres unmarked) [Compound 14]	17	2.2	0.78			
COc1cc2cc(c1Cl)N(C)C(=O)C[C@H](OC(=O)[C@H](C)N(C)C(=O)CCSC1CC(=O)N(CCCCCC(=O)NCCCC[C@H](NC(C)=O)C(=O)N3CCC[C@H]3C(=O)N(C)[C@@H](CCCNC(=N)N)C(=O)N[C@@H](CCCNC(=N)N)C(=O)N3CCC[C@H]3C(=O)N[C@@H](Cc3ccc(O)cc3)C(=O)N[C@H](C(=O)N[C@@H](CC(C)C)C(=O)O)C(C)(C)C)C1=O)[C@]1(C)O[C@H]1[C@H](C)[C@@H]1C[C@@](O)(NC(=O)O1)[C@H](OC)/C=C/C=C(\C)C2 (some centres unmarked) [Compound 15]	96	70	1.08			
COc1cccc2c1C(=O)c1c(O)c3c(c(O)c1C2=O)C[C@@](O)(C(=O)CO)C[C@@H]3O[C@H]1C[C@H](NC(=O)OCCSSC(C)(C)[C@H](NC(C)=O)C(=O)N2CCC[C@H]2C(=O)N[C@@H](CCCNC(=N)N)C(=O)N[C@@H](CCCNC(=N)N)C(=O)N2CCC[C@H]2C(=O)N[C@@H](Cc2ccc(O)cc2)C(=O)N[C@H](C(=O)N[C@@H](CC(C)C)C(=O)O)C(C)(C)C)[C@H](O)[C@H](C)O1 [Compound 51] (Ac-[Pen](X3)PRRPY[Tle]L-OH)		1600	1.34			
CC[C@H](C)[C@@H]([C@@H](CC(=O)N1CCC[C@H]1[C@H](OC)[C@@H](C)C(=O)N[C@H](C)[C@@H](O)c1ccccc1)OC)N(C)C(=O)[C@@H](NC(=O)[C@H](C(C)C)N(C)C(=O)OCc1ccc(NC(=O)[C@H](CCCNC(N)=O)NC(=O)[C@@H](NC(=O)CCCCCN2C(=O)CC(SC(C)(C)[C@H](NC(C)=O)C(=O)N3CCC[C@H]3C(=O)N[C@@H](CCCCN)C(=O)N[C@@H](CCCNC(=N)N)C(=O)N3CCC[C@H]3C(=O)N[C@@H](Cc3ccc(O)cc3)C(=O)N[C@H](C(=O)N[C@@H](CC(C)C)C(=O)O)C(C)(C)C)C2=O)C(C)C)cc1)C(C)C (stereo partly drawn) [Compound 59] (I: Ac-[Pen]PKRPY[Tle]L-OH / II: V[Cit][PABC][NMeV]V[Dil][Dolaproine]-X1; linker I:1-II:N via Hexanoyl(6-succinimido-3yl))		65	6.98			
CCc1c2c(nc3ccc(O)cc13)-c1cc3c(c(=O)n1C2)COC(=O)[C@@]3(CC)OC(=O)OCCSSC(C)(C)[C@H](NC(C)=O)C(=O)N1CCC[C@H]1C(=O)N[C@@H](CCCNC(=N)N)C(=O)N[C@@H](CCCNC(=N)N)C(=O)N1CCC[C@H]1C(=O)N[C@@H](Cc1ccc(O)cc1)C(=O)N[C@H](C(=O)N[C@@H](CC(C)C)C(=O)O)C(C)(C)C [Compound 63] (Ac-[Pen](X4)PRRPY[Tle]L-OH)		226	1.89			
CCc1c2c(nc3ccc(O)cc13)-c1cc3c(c(=O)n1C2)COC(=O)[C@@]3(CC)OC(=O)OCc1ccc(NC(=O)[C@H](CCCNC(N)=O)NC(=O)[C@@H](NC(=O)CCCCCN2C(=O)CC(SC(C)(C)[C@H](NC(C)=O)C(=O)N3CCC[C@H]3C(=O)N[C@@H](CCCNC(=N)N)C(=O)N[C@@H](CCCNC(=N)N)C(=O)N3CCC[C@H]3C(=O)N[C@@H](Cc3ccc(O)cc3)C(=O)N[C@H](C(=O)N[C@@H](CC(C)C)C(=O)O)C(C)(C)C)C2=O)C(C)C)cc1 (some centres unmarked) [Compound 64]		66	2.05			
COc1cc2cc(c1Cl)N(C)C(=O)C[C@H](OC(=O)[C@H](C)N(C)C(=O)CCSSC(C)(C)[C@H](NC(C)=O)C(=O)N1CCC[C@H]1C(=O)N[C@@H](CC(C)C)C(=O)N1CCC[C@H]1C(=O)N[C@@H](CCCNC(=N)N)C(=O)N[C@H](C(=O)N[C@@H](CCCNC(=N)N)C(=O)N[C@@H](Cc1ccc(O)cc1)C(=O)O)C(C)(C)C)[C@]1(C)O[C@H]1[C@H](C)[C@@H]1C[C@@](O)(NC(=O)O1)[C@H](OC)/C=C/C=C(\C)C2 [Compound 77]			> 100	16.5		
COc1cc2cc(c1Cl)N(C)C(=O)C[C@H](OC(=O)[C@H](C)N(C)C(=O)CCSSCCC(=O)NCCCC[C@H](NC(C)=O)C(=O)N1CCC[C@H]1C(=O)N[C@@H](CC(C)C)C(=O)N1CCC[C@H]1C(=O)N(C)[C@@H](CCCNC(=N)N)C(=O)N[C@H](C(=O)N[C@@H](CCCNC(=N)N)C(=O)N[C@@H](Cc1ccc(O)cc1)C(=O)O)C(C)(C)C)[C@]1(C)O[C@H]1[C@H](C)[C@@H]1C[C@@](O)(NC(=O)O1)[C@H](OC)/C=C/C=C(\C)C2 [Compound 78]				3	13.3	
COc1cc2cc(c1Cl)N(C)C(=O)C[C@H](OC(=O)[C@H](C)N(C)C(=O)CCSC1CC(=O)N(CCCCCC(=O)NCCCC[C@H](NC(C)=O)C(=O)N3CCC[C@H]3C(=O)N[C@@H](CC(C)C)C(=O)N3CCC[C@H]3C(=O)N(C)[C@@H](CCCNC(=N)N)C(=O)N[C@H](C(=O)N[C@@H](CCCNC(=N)N)C(=O)N[C@@H](Cc3ccc(O)cc3)C(=O)O)C(C)(C)C)C1=O)[C@]1(C)O[C@H]1[C@H](C)[C@@H]1C[C@@](O)(NC(=O)O1)[C@H](OC)/C=C/C=C(\C)C2 (some centres unmarked) [Compound 80]				81	116	
COc1cc2cc(c1Cl)N(C)C(=O)C[C@H](OC(=O)[C@H](C)N(C)C(=O)CCSC1CC(=O)N(CCCNC(=O)CNC(=O)[C@H](CC(C)C)NC(=O)[C@H](Cc3ccccc3)NC(=O)CNC(=O)CCCCCN3C(=O)CC(SC(C)(C)[C@H](NC(C)=O)C(=O)N4CCC[C@H]4C(=O)N[C@@H](CC(C)C)C(=O)N4CCC[C@H]4C(=O)N[C@@H](CCCNC(=N)N)C(=O)N[C@H](C(=O)N[C@@H](CCCNC(=N)N)C(=O)N[C@@H](Cc4ccc(O)cc4)C(=O)O)C(C)(C)C)C3=O)C1=O)[C@]1(C)O[C@H]1[C@H](C)[C@@H]1C[C@@](O)(NC(=O)O1)[C@H](OC)/C=C/C=C(\C)C2 (some centres unmarked) [Compound 81]				70		> 100
CC[C@H](C)[C@@H]([C@@H](CC(=O)N1CCC[C@H]1[C@H](OC)[C@@H](C)C(=O)N[C@H](C)[C@@H](O)c1ccccc1)OC)N(C)C(=O)[C@@H](NC(=O)[C@H](C(C)C)N(C)C(=O)OCc1ccc(NC(=O)[C@H](CCCNC(N)=O)NC(=O)[C@@H](NC(=O)CCCCCN2C(=O)CC(SC(C)(C)[C@H](NC(C)=O)C(=O)N3CCC[C@H]3C(=O)N[C@@H](CC(C)C)C(=O)N3CCC[C@H]3C(=O)N[C@@H](CCCNC(=N)N)C(=O)N[C@H](C(=O)N[C@@H](CCCNC(=N)N)C(=O)N[C@@H](Cc3ccc(O)cc3)C(=O)O)C(C)(C)C)C2=O)C(C)C)cc1)C(C)C (some centres unmarked) [Compound 90]				60	97	
CC[C@H](C)[C@@H]([C@@H](CC(=O)N1CCC[C@H]1[C@H](OC)[C@@H](C)C(=O)N[C@H](C)[C@@H](O)c1ccccc1)OC)N(C)C(=O)[C@@H](NC(=O)[C@H](C(C)C)N(C)C(=O)OCCSSC(C)(C)[C@H](NC(C)=O)C(=O)N1CCC[C@H]1C(=O)N[C@@H](CC(C)C)C(=O)N1CCC[C@H]1C(=O)N[C@@H](CCCNC(=N)N)C(=O)N[C@H](C(=O)N[C@@H](CCCNC(=N)N)C(=O)N[C@@H](Cc1ccc(O)cc1)C(=O)O)C(C)(C)C)C(C)C [Compound 92]				18	2.2	
